Values of other authors as cited in patent US20220378756A1, “ACTIVATING PYRUVATE KINASE R” (FORMA Therapeutics, Inc., priority 2019, published 2022).
Like-named read-outs stand apart in the source and are kept apart here.

Assays:
aromatase = molecular target: T1, aromatase (Homo sapiens, UniProt P11511); conditions: Yang et al. 2018; Grace et al. 2019; cited from earlier work
T1 sequence (P11511 1-503): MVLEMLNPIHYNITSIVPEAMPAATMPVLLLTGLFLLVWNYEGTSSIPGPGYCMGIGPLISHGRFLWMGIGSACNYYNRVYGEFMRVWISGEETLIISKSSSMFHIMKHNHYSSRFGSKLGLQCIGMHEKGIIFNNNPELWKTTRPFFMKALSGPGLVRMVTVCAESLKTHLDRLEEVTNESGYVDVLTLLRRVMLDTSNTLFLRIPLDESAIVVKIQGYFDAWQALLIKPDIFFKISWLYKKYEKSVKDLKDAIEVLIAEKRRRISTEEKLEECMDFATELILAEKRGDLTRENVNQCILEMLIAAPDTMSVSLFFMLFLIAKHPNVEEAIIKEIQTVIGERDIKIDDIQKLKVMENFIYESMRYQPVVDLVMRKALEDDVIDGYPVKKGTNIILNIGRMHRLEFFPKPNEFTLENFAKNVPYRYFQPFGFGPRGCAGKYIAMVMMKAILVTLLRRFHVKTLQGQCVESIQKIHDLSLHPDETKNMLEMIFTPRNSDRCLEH

[1] = cited from earlier work

SMILES | aromatase inhibition (aromatase) | AUC increase with high-fat, high-calorie meal vs fasted ([1]; plasma) [%] | Cmax increase with high-fat, high-calorie meal vs fasted ([1]; plasma) [%] | steady state AUC higher in HbSC vs HbSS genotype patients ([1]; plasma) [%] | steady state Cmax higher in HbSC vs HbSS genotype patients ([1]; plasma) [%] | AUC increase with high-fat, high-calorie meal vs fasted ([1]; whole blood) [%] | Cmax increase with high-fat, high-calorie meal vs fasted ([1]; whole blood) [%] | steady state AUC higher in HbSC (n=11) vs HbSS (n=220) genotype patients ([1]; whole blood) [%] | steady state Cmax higher in HbSC (n=11) vs HbSS (n=220) genotype patients ([1]; whole blood) [%]
O=C(c1ccc(NS(=O)(=O)c2cccc3cccnc23)cc1)N1CCN(CC2CC2)CC1 [AG-348] | Aromatase inhibition has been observed |  |  |  |  |  |  |  | 
CC(C)n1nccc1-c1ncccc1COc1cccc(O)c1C=O [voxelotor, 2-hydroxy-6-((2-(1-isopropyl-1H-pyrazol-5-yl)pyridin-3-yl)methoxy)benzaldehyde] |  | 42 | 95 | 23 | 15 | 42 | 45 | 50 | 45
